Test results taken from article PMC8834192 (2022).

How the values were obtained:
[1] = system: Z0 (DNA, aptamer) CTACCAGCTTTGAGGCTCGATCCAGCTTATTCAATTATACCAGCTTATTCAATTATACCAGC; assay: circular dichroism; details: Z0Z1 partial duplex; Z1 (S3) displaced; buffer not stated
[2] = system: Z0 (DNA, aptamer) CTACCAGCTTTGAGGCTCGATCCAGCTTATTCAATTATACCAGCTTATTCAATTATACCAGC; assay: UV-Vis absorbance at 260 nm of released strand; details: room temperature; partially complementary strand Z1 displaced from bead-bound Z0Z1

binding [1]: yes
binding [2]: yes
Compound: C[C@H]1CCCC(=O)CCC/C=C/c2cc(O)cc(O)c2C(=O)O1
